Reference: patent US20080227763A1, “Topical hormonal composition with systemic action” (LABORATOIRE THERAMEX, priority 1998, published 2008)
Read-outs that look alike come from different tables or passages of the source.

Experiments:
[1] = Solubility of nomegestrol acetate in solvent mixtures; type: physicochemical
[2] = as above; type: physicochemical; settings: ethanol/water/propyleneglycol ternary mixture, aqueous with cosolvent or surfactant or cyclodextrin, read-out: Solubilities
Protocol: The effect of a ternary mixture of solvents, ethanol/water (45:55)/propyleneglycol on the solubility of nomegestrol acetate was determined.
We also examined the possibility of lowering the proportion of alcohol in the solvent, by means of this ternary mixture, while maintaining similar solubility; for this we choose the influence of propyleneglycol on solubility in ethanol/water systems (40:60 and 30:70).

[3] = Clinical example No. 1: plasma nomegestrol acetate after gel applied daily to both breasts; type: in vivo, women
Protocol: In these examples, clinical trials were carried out on women, with the gel containing 0.11% of nomegestrol acetate, whose formulation is given in Table 1 of example I.
Twenty-four volunteers, women in good health and in the period of ovarian activity, with average age of 23.5 years, were treated on 15 consecutive days with 4 mg of nomegestrol acetate in a gel applied every day to both breasts.
Repeated blood samples were taken in the hours following the first and last administration, on 9 occasions (6 times before application of the gel and 3 times 3 hours afterwards), between the 2nd and the 14th day of treatment. The plasma of these samples was analysed for nomegestrol acetate by liquid chromatography combined with mass spectrometry.

[4] = system: breast pain; experiment: Clinical example No. 3: breast pain in premenopausal women treated with gel on both breasts; type: in vivo; settings: 55 women, 4 mg/day as gel on both breasts
Protocol: In these examples, clinical trials were carried out on women, with the gel containing 0.11% of nomegestrol acetate, whose formulation is given in Table 1 of example I. […], who had been suffering from breast pains for more than 3 months and for at least 7 days per cycle, were treated for an average time of 130 days with 4 mg of nomegestrol acetate applied each day, on the last 15 days of the menstrual cycle, in the form of a gel on both breasts. Efficacy was assessed after 3 months and at the end of treatment using a visual analogue scale for quantifying breast pain.

[5] = after the last administration (15 consecutive days)
[6] = first day of treatment, 4 mg nomegestrol acetate in 0.11% gel on both breasts

CC(=O)O[C@]1(C(C)=O)CC[C@H]2[C@@H]3C=C(C)C4=CC(=O)CC[C@@H]4[C@H]3CC[C@@]21C [nomegestrol acetate]
solubility ([1]; 95° ethanol/water binary mixture, aqueous with cosolvent or surfactant or cyclodextrin, 95° ethanol/water binary mixture, 10% 95° ethanol, read-out: Solubility of nomegestrol acetate): 70 µg/mL | solubility ([1]; 95° ethanol/water binary mixture, aqueous with cosolvent or surfactant or cyclodextrin, 95° ethanol/water binary mixture, 20% 95° ethanol, read-out: Solubility of nomegestrol acetate): 113 µg/mL | solubility ([1]; 95° ethanol/water binary mixture, aqueous with cosolvent or surfactant or cyclodextrin, 95° ethanol/water binary mixture, 30% 95° ethanol, read-out: Solubility of nomegestrol acetate): 683 µg/mL | solubility ([1]; 95° ethanol/water binary mixture, aqueous with cosolvent or surfactant or cyclodextrin, 95° ethanol/water binary mixture, 40% 95° ethanol, read-out: Solubility of nomegestrol acetate): 2820 µg/mL | solubility ([1]; 95° ethanol/water binary mixture, aqueous with cosolvent or surfactant or cyclodextrin, 95° ethanol/water binary mixture, 50% 95° ethanol, read-out: Solubility of nomegestrol acetate): 7330 µg/mL | solubility ([1]; 95° ethanol/water binary mixture, aqueous with cosolvent or surfactant or cyclodextrin, 95° ethanol/water binary mixture, 60% 95° ethanol, read-out: Solubility of nomegestrol acetate): 17800 µg/mL | solubility ([1]; 95° ethanol/water binary mixture, aqueous with cosolvent or surfactant or cyclodextrin, 95° ethanol/water binary mixture, 70% 95° ethanol, read-out: Solubility of nomegestrol acetate): 24800 µg/mL | solubility ([1]; 95° ethanol/water binary mixture, aqueous with cosolvent or surfactant or cyclodextrin, 95° ethanol/water binary mixture, 80% 95° ethanol, read-out: Solubility of nomegestrol acetate): 29500 µg/mL | solubility ([1]; 95° ethanol/water binary mixture, aqueous with cosolvent or surfactant or cyclodextrin, 95° ethanol/water binary mixture, 90% 95° ethanol, read-out: Solubility of nomegestrol acetate): 26600 µg/mL | solubility ([1]; 95° ethanol/water binary mixture, organic solvent or mixture, 95° ethanol/water binary mixture, 100% 95° ethanol, read-out: Solubility of nomegestrol acetate): 32800 µg/mL | solubility ([1]; 95° ethanol/water binary mixture, water, 95° ethanol/water binary mixture, 0% 95° ethanol, read-out: Solubility of nomegestrol acetate): 56 µg/mL | solubility ([1]; aqueous-alcoholic solvent mixture, aqueous with cosolvent or surfactant or cyclodextrin, aqueous-alcoholic mixture, 0% propyleneglycol, 3% Solketal, read-out: Solubility of nomegestrol acetate): 6700 µg/mL | solubility ([1]; aqueous-alcoholic solvent mixture, aqueous with cosolvent or surfactant or cyclodextrin, aqueous-alcoholic mixture, 0% propyleneglycol, 3% Vitamin E TPGS, read-out: Solubility of nomegestrol acetate): 7650 µg/mL | solubility ([1]; aqueous-alcoholic solvent mixture, aqueous with cosolvent or surfactant or cyclodextrin, aqueous-alcoholic mixture, 0% propyleneglycol, 8% Solketal, read-out: Solubility of nomegestrol acetate): 8600 µg/mL | solubility ([1]; aqueous-alcoholic solvent mixture, aqueous with cosolvent or surfactant or cyclodextrin, aqueous-alcoholic mixture, 0% propyleneglycol, 8% Transcutol®, read-out: Solubility of nomegestrol acetate): 10700 µg/mL | solubility ([1]; aqueous-alcoholic solvent mixture, aqueous with cosolvent or surfactant or cyclodextrin, aqueous-alcoholic mixture, 0% propyleneglycol, 8% Vitamin E TPGS, read-out: Solubility of nomegestrol acetate): 11100 µg/mL | solubility ([1]; aqueous-alcoholic solvent mixture, aqueous with cosolvent or surfactant or cyclodextrin, aqueous-alcoholic mixture, 3% propyleneglycol, 8% Transcutol®, read-out: Solubility of nomegestrol acetate): 10600 µg/mL | solubility ([1]; aqueous-alcoholic solvent mixture, aqueous with cosolvent or surfactant or cyclodextrin, aqueous-alcoholic mixture, 8% propyleneglycol, 0% Solketal, read-out: Solubility of nomegestrol acetate): 7700 µg/mL | solubility ([1]; aqueous-alcoholic solvent mixture, aqueous with cosolvent or surfactant or cyclodextrin, aqueous-alcoholic mixture, 8% propyleneglycol, 0% Transcutol®, read-out: Solubility of nomegestrol acetate): 7700 µg/mL | solubility ([1]; aqueous-alcoholic solvent mixture, aqueous with cosolvent or surfactant or cyclodextrin, aqueous-alcoholic mixture, 8% propyleneglycol, 0% Vitamin E TPGS, read-out: Solubility of nomegestrol acetate): 7700 µg/mL | solubility ([1]; aqueous-alcoholic solvent mixture, aqueous with cosolvent or surfactant or cyclodextrin, aqueous-alcoholic mixture, 8% propyleneglycol, 3% Solketal, read-out: Solubility of nomegestrol acetate): 10700 µg/mL | solubility ([1]; aqueous-alcoholic solvent mixture, aqueous with cosolvent or surfactant or cyclodextrin, aqueous-alcoholic mixture, 8% propyleneglycol, 3% Transcutol®, read-out: Solubility of nomegestrol acetate): 7950 µg/mL | solubility ([1]; aqueous-alcoholic solvent mixture, aqueous with cosolvent or surfactant or cyclodextrin, aqueous-alcoholic mixture, 8% propyleneglycol, 3% Vitamin E TPGS, read-out: Solubility of nomegestrol acetate): 12500 µg/mL | solubility ([1]; ethanol/water/Labrasol solvent mixture with propyleneglycol, aqueous with cosolvent or surfactant or cyclodextrin, System Ethanol 95° 45%/Water 50%/Labrasol® 5%, 10% propyleneglycol, read-out: Solubility of l'nomegestrol acetate): 9500 µg/mL | solubility ([1]; ethanol/water/Labrasol solvent mixture with propyleneglycol, aqueous with cosolvent or surfactant or cyclodextrin, System Ethanol 95° 45%/Water 50%/Labrasol® 5%, 15% propyleneglycol, read-out: Solubility of l'nomegestrol acetate): 10200 µg/mL | solubility ([1]; ethanol/water/Labrasol solvent mixture, aqueous with cosolvent or surfactant or cyclodextrin, System Ethanol 95° 45%/Water 50%/Labrasol® 5%, 0% propyleneglycol, read-out: Solubility of l'nomegestrol acetate): 9400 µg/mL | solubility ([1]; ethanol/water/propyleneglycol solvent mixture, aqueous with cosolvent or surfactant or cyclodextrin, System III (Ethanol 95° 45%/Demineralized water 55%), 2% propyleneglycol, read-out: Solubilities): 5100 µg/mL | solubility ([1]; ethanol/water/propyleneglycol ternary mixture, aqueous with cosolvent or surfactant or cyclodextrin, System I (Ethanol 95° 30%/Demineralized water 70%), 0% propyleneglycol, read-out: Solubilities): 600 µg/mL | solubility ([1]; ethanol/water/propyleneglycol ternary mixture, aqueous with cosolvent or surfactant or cyclodextrin, System I (Ethanol 95° 30%/Demineralized water 70%), 4% propyleneglycol, read-out: Solubilities): 500 µg/mL | solubility ([1]; ethanol/water/propyleneglycol ternary mixture, aqueous with cosolvent or surfactant or cyclodextrin, System I (Ethanol 95° 30%/Demineralized water 70%), 6% propyleneglycol, read-out: Solubilities): 700 µg/mL | solubility ([1]; ethanol/water/propyleneglycol ternary mixture, aqueous with cosolvent or surfactant or cyclodextrin, System I (Ethanol 95° 30%/Demineralized water 70%), 8% propyleneglycol, read-out: Solubilities): 1000 µg/mL | solubility ([1]; ethanol/water/propyleneglycol ternary mixture, aqueous with cosolvent or surfactant or cyclodextrin, System I (Ethanol 95° 30%/Demineralized water 70%), 12% propyleneglycol, read-out: Solubilities): 1100 µg/mL | solubility ([1]; ethanol/water/propyleneglycol ternary mixture, aqueous with cosolvent or surfactant or cyclodextrin, System I (Ethanol 95° 30%/Demineralized water 70%), 20% propyleneglycol, read-out: Solubilities): 1500 µg/mL | solubility ([1]; ethanol/water/propyleneglycol ternary mixture, aqueous with cosolvent or surfactant or cyclodextrin, System II (Ethanol 95° 40%/Demineralized water 60%), 0% propyleneglycol, read-out: Solubilities): 2900 µg/mL | solubility ([1]; ethanol/water/propyleneglycol ternary mixture, aqueous with cosolvent or surfactant or cyclodextrin, System II (Ethanol 95° 40%/Demineralized water 60%), 4% propyleneglycol, read-out: Solubilities): 2600 µg/mL | solubility ([1]; ethanol/water/propyleneglycol ternary mixture, aqueous with cosolvent or surfactant or cyclodextrin, System II (Ethanol 95° 40%/Demineralized water 60%), 8% propyleneglycol, read-out: Solubilities): 3200 µg/mL | solubility ([1]; ethanol/water/propyleneglycol ternary mixture, aqueous with cosolvent or surfactant or cyclodextrin, System II (Ethanol 95° 40%/Demineralized water 60%), 20% propyleneglycol, read-out: Solubilities): 3900 µg/mL | solubility ([1]; ethanol/water/propyleneglycol ternary mixture, aqueous with cosolvent or surfactant or cyclodextrin, System III (Ethanol 95° 45%/Demineralized water 55%), 0% propyleneglycol, read-out: Solubilities): 5100 µg/mL | solubility ([1]; ethanol/water/propyleneglycol ternary mixture, aqueous with cosolvent or surfactant or cyclodextrin, System III (Ethanol 95° 45%/Demineralized water 55%), 4% propyleneglycol, read-out: Solubilities): 5100 µg/mL | solubility ([1]; ethanol/water/propyleneglycol ternary mixture, aqueous with cosolvent or surfactant or cyclodextrin, System III (Ethanol 95° 45%/Demineralized water 55%), 6% propyleneglycol, read-out: Solubilities): 5100 µg/mL | solubility ([1]; ethanol/water/propyleneglycol ternary mixture, aqueous with cosolvent or surfactant or cyclodextrin, System III (Ethanol 95° 45%/Demineralized water 55%), 20% propyleneglycol, read-out: Solubilities): 7900 µg/mL | solubility ([2]; System I (Ethanol 95° 30%/Demineralized water 70%), 2% propyleneglycol): 600 µg/mL | solubility ([2]; System II (Ethanol 95° 40%/Demineralized water 60%), 2% propyleneglycol): 2600 µg/mL | solubility ([2]; System II (Ethanol 95° 40%/Demineralized water 60%), 6% propyleneglycol): 3000 µg/mL | solubility ([2]; System II (Ethanol 95° 40%/Demineralized water 60%), 12% propyleneglycol): 3400 µg/mL | solubility ([2]; System III (Ethanol 95° 45%/Demineralized water 55%), 8% propyleneglycol): 7700 µg/mL | solubility ([2]; System III (Ethanol 95° 45%/Demineralized water 55%), 12% propyleneglycol): 7700 µg/mL | area under the curve from 0 to 48 hours [3, 5]: 18.43±2.091 ng/ml per h | maximum concentration (plasma) [3, 5]: 0.65 ± 0.073 ng/mL | state of equilibrium obtained ([3]; daily application): after the 3rd day of treatment | concentration at 72 h ([3]; female, human, plasma, topical, 4 mg, 72 hours after the last application, read-out: plasma level): 0.19 ± 0.027 ng/mL | area under the curve from 0 to 48 hours [3, 6]: 6.08±0.775 ng/ml per h | maximum concentration (plasma) [3, 6]: 0.25 ± 0.027 ng/mL | nomegestrol acetate in the blood (m±sd) [4]: 0.44 ± 0.30 ng/mL
